{"source": "patent US5235045A", "about": "“Non-azo naphthalimide dyes” (priority 1992, dated 1993)", "key": {"H9 cells [1]": {"tested_on": "H9 cells", "assay": "Cell viability in absence of light (trypan blue exclusion)", "type": "cell-based, human", "details": "dark, medium 1.5 hours, counted 2.5 hours after", "text": "Following the protocol of (1), above, H9 cells were stained with Compound lb, and the technique of fluorescent microscopy was used to determine visually the sites of localization of dye fluorescence in living cells. Specifically, H9 cells were counted with a hemocytometer and diluted to 5×10^5 /ml. […] Cytospin slides of the cell suspensions were made and they were examined with the fluorescence microscope (Olympus AH-2) using B excitation plus a 460 nm interference excitation filter and a 495 nm emission filter. The cells were also counted with a hemocytometer and their viability determined (see below). […] The former may reflect the diffusional component of the dye incorporation, or may reflect binding in the ER membrane. The latter may indicate lysosomal localization of pinocytosed dye as occurs with Lucifer Yellow.\nCell viability was determined using dye incorporated according to the protocol directly above. Viability was determined using a trypan blue dye exclusion test in which \"live\" cells with competent cell membranes exclude the dye. Table 5 summarizes the data obtained using cells exposed to Compound 1b in culture medium, and Table 6 summarizes data obtained using cells exposed to Compound VII."}, "H9 cells [2]": {"tested_on": "H9 cells", "assay": "Dye-mediated light kill of H9 cells (trypan blue)", "type": "cell-based", "details": "Homo sapiens, read-out: Percent Viability", "method": "Photoinduced killing of H9 cells with Compound 1b as the mediator of photochemical toxicity were carried out according to the following protocol:\nCompound 1b was added to the H9 cells (5×10^5 /ml) in medium or 100% human plasma to give dye concentrations of 0, 25 and 100 μM (1 control, 2 duplicates of both non-azo dye samples). Two 2-ml aliquots of each of the duplicated dye samples was irradiated with 10J/cm^2 total energy of 450±35 nm wavelength light in a sealed 3-ml test tube. Immediately after irradiation, the cells were centrifuged at 450×g for 10 minutes, and the pellets resuspended in the original volume of fresh RPMI-1640+10% FCS+gentamycin. The cell suspensions were transferred to a 12-well TC plate and placed in a 37° C. 5% CO2 incubator. Cell viability counts (trypan blue) were carried out at 4, 24, 48, and 72 hours post irradiation. The results of these experiments are summarized in Tables 7 (medium) and 8 (100% human plasma).\nPhotoinduced killing of H9 cells with Compound VII as the mediator of photochemical toxicity were carried out in 10% FCS medium according to the same general protocol using concentrations of the dye at 0, 5, 25 and 100 μM., and irradiating at 420±5 nm at 10J/cm^2 total energy."}, "Vero cells": {"tested_on": "Vero cells", "assay": "Cellular toxicity in Vero cells (viral-medium suspension samples)", "type": "cell-based", "details": "DiEd6Br", "method": "(§1) Each sample including the stock virus were assayed on Vero cells for PFU/ml of HSV-1. The assay consisted of growing Vero cells in minimal essential medium with Hanks balanced salt solution supplemented with 10% fetal bovine serum, L-glutamine and antibiotics. Hepes buffer (2%) was added for growth in open plates (twelve well microplates from CO-star). Ten fold dilutions of each sample were prepared and 0.1 ml of the appropriate dilution for each individual sample was adsorbed at 37° C. for 1.5 hr. on a cell monolayer from which the growth medium had been removed. After the adsorption period, the cell monolayer was washed and an overlay consisting of equal volumes of 2X strength L-15 medium and 2% methylcellulose was added. Following an appropriate incubation time at 37° C. (about 4 days), the overlay medium was removed. Monolayers were fixed with methanol and stained with giemsa to elaborate the presence of plaques. The plaques were counted using a dissecting microscope at a magnification of 20X.\nas §1, with “Co-star).” for “CO-star).”"}, "[3]": {"assay": "Bleaching and recovery of fluorescence in aqueous suspension of Cremophor EL", "type": "physicochemical", "method": "A 14.9 millimolar stock solution of Ed6Br in Cremophor EL was used to make 3 ml of a micellar Cremophor suspension having a concentration averaged over the entire sample volume of […]. A […] aliquot was removed and diluted with 2.9 ml of distilled water for measurement of fluorescence using an SLM 500C spectrofluorometer (excitation, 420 nm, emission, 520 nm). The 3 ml sample was divided into two 1.5 ml aliquots placed in quartz crusetts. One sample was irradiated with stirring with 420 # 5 nm filtered light from a xenon arc lamp with an irradiance of 20 mW/cm^2 and with the companion sample wrapped in aluminum foil (dark control) and maintained alongside of the irradiated sample. […] After the entire light treatment, both the illuminated and dark control samples were divided into two equal aliquots and held pairwise (dark+previously illuminated) at 4° C. and 20° C. in the absence of light. Aliquots of […] were taken from each sample after 18 and 43 hr and their fluorescence emission values determined using the SLM 500C instrument immediately after sampling.\nIn an experiment eventually following the protocol described immediately above in Part I (for Ed6Br), the light-induced bleaching of DiEd6Br with 200 J/cm^2 light exposure and recovery of its fluorescence upon standing in the dark at 22° C. were determined."}, "[4]": {"details": "H9, 4 h, no hν, 10% FCS medium, 4 hours"}, "[5]": {"details": "H9, 4 h, no hν, 100% human plasma, 4 hours"}, "[6]": {"details": "H9, 24 h, no hν, 10% FCS medium, 24 hours"}, "[7]": {"details": "H9, 24 h, no hν, 100% human plasma, 24 hours"}, "[8]": {"details": "H9, 48 h, no hν, 10% FCS medium, 48 hours"}, "[9]": {"details": "H9, 48 h, no hν, 100% human plasma, 48 hours"}, "[10]": {"details": "H9, 72 h, no hν, 10% FCS medium, 72 hours"}, "[11]": {"details": "H9, 72 h, no hν, 100% human plasma, 72 hours"}, "[12]": {"details": "H9, light or radiation study, 4 h, hν 10J/cm^2, 450±35 nm, 10% FCS medium, 4 hours"}, "[13]": {"details": "H9, light or radiation study, 4 h, hν 10J/cm^2, 450±35 nm, 100% human plasma, 4 hours"}, "[14]": {"details": "H9, light or radiation study, 24 h, hν 10J/cm^2, 450±35 nm, 10% FCS medium, 24 hours"}, "[15]": {"details": "H9, light or radiation study, 24 h, hν 10J/cm^2, 450±35 nm, 100% human plasma, 24 hours"}, "[16]": {"details": "H9, light or radiation study, 48 h, hν 10J/cm^2, 450±35 nm, 10% FCS medium, 48 hours"}, "[17]": {"details": "H9, light or radiation study, 48 h, hν 10J/cm^2, 450±35 nm, 100% human plasma, 48 hours"}, "[18]": {"details": "H9, light or radiation study, 72 h, hν 10J/cm^2, 450±35 nm, 10% FCS medium, 72 hours"}, "[19]": {"details": "H9, light or radiation study, 72 h, hν 10J/cm^2, 450±35 nm, 100% human plasma, 72 hours"}}, "note": "Like-named read-outs stand apart in the source and are kept apart here."}
{"smiles": "CCCCCCNc1ccc2c3c(cccc13)C(=O)N(CCCCCC)C2=O", "note": "[Compound 1b, 4-(hexyl)amino-N-hexyl-1,8-naphthalimide]", "values": [{"measurement": "dead cells", "setting": "H9 cells [1]; 5 μM", "result": 4}, {"measurement": "live cells", "setting": "H9 cells [1]; 5 μM", "result": 116}, {"measurement": "dead cells", "setting": "H9 cells [1]; 25 μM", "result": 4}, {"measurement": "live cells", "setting": "H9 cells [1]; 25 μM", "result": 136}, {"measurement": "viability at 25 µM", "setting": "H9 cells [2]; [4]", "result": 96.9, "unit": "%"}, {"measurement": "viability at 25 µM", "setting": "H9 cells [2]; [5]", "result": 97.2, "unit": "%"}, {"measurement": "viability at 100 µM", "setting": "H9 cells [2]; [4]", "result": 94.6, "unit": "%"}, {"measurement": "viability at 100 µM", "setting": "H9 cells [2]; [5]", "result": 99.2, "unit": "%"}, {"measurement": "viability at 25 µM", "setting": "H9 cells [2]; [6]", "result": 94.8, "unit": "%"}, {"measurement": "viability at 25 µM", "setting": "H9 cells [2]; [7]", "result": 93.4, "unit": "%"}, {"measurement": "viability at 100 µM", "setting": "H9 cells [2]; [6]", "result": 94.6, "unit": "%"}, {"measurement": "viability at 100 µM", "setting": "H9 cells [2]; [7]", "result": 94.3, "unit": "%"}, {"measurement": "viability at 25 µM", "setting": "H9 cells [2]; [8]", "result": 90.5, "unit": "%"}, {"measurement": "viability at 25 µM", "setting": "H9 cells [2]; [9]", "result": 86.4, "unit": "%"}, {"measurement": "viability at 100 µM", "setting": "H9 cells [2]; [8]", "result": 91.3, "unit": "%"}, {"measurement": "viability at 100 µM", "setting": "H9 cells [2]; [9]", "result": 90.7, "unit": "%"}, {"measurement": "viability at 25 µM", "setting": "H9 cells [2]; [10]", "result": 91.4, "unit": "%"}, {"measurement": "viability at 25 µM", "setting": "H9 cells [2]; [11]", "result": 85, "unit": "%"}, {"measurement": "viability at 100 µM", "setting": "H9 cells [2]; [10]", "result": 85.1, "unit": "%"}, {"measurement": "viability at 100 µM", "setting": "H9 cells [2]; [11]", "result": 87.4, "unit": "%"}, {"measurement": "viability at 25 µM", "setting": "H9 cells [2]; [12]", "result": 62.8, "unit": "%"}, {"measurement": "viability at 25 µM", "setting": "H9 cells [2]; [13]", "result": 97.9, "unit": "%"}, {"measurement": "viability at 100 µM", "setting": "H9 cells [2]; [12]", "result": 87.2, "unit": "%"}, {"measurement": "viability at 100 µM", "setting": "H9 cells [2]; [13]", "result": 97.4, "unit": "%"}, {"measurement": "viability at 25 µM", "setting": "H9 cells [2]; [14]", "result": 8.4, "unit": "%"}, {"measurement": "viability at 25 µM", "setting": "H9 cells [2]; [15]", "result": 94.4, "unit": "%"}, {"measurement": "viability at 100 µM", "setting": "H9 cells [2]; [14]", "result": 52, "unit": "%"}, {"measurement": "viability at 100 µM", "setting": "H9 cells [2]; [15]", "result": 92.4, "unit": "%"}, {"measurement": "viability at 25 µM", "setting": "H9 cells [2]; [16]", "result": 10, "unit": "%"}, {"measurement": "viability at 25 µM", "setting": "H9 cells [2]; [17]", "result": 86.5, "unit": "%"}, {"measurement": "viability at 100 µM", "setting": "H9 cells [2]; [16]", "result": 64.8, "unit": "%"}, {"measurement": "viability at 100 µM", "setting": "H9 cells [2]; [17]", "result": 92.6, "unit": "%"}, {"measurement": "viability at 25 µM", "setting": "H9 cells [2]; [18]", "result": 30.6, "unit": "%"}, {"measurement": "viability at 25 µM", "setting": "H9 cells [2]; [19]", "result": 90.2, "unit": "%"}, {"measurement": "viability at 100 µM", "setting": "H9 cells [2]; [18]", "result": 71.4, "unit": "%"}, {"measurement": "viability at 100 µM", "setting": "H9 cells [2]; [19]", "result": 88.2, "unit": "%"}]}
{"smiles": "CCCCCCN1C(=O)c2cccc3c(NCCNC(=O)CCCCC(=O)NCCNc4c(Br)cc5c6c(cccc46)C(=O)N(CCCCCC)C5=O)c(Br)cc(c23)C1=O", "note": "[Compound XLIV]", "values": [{"measurement": "cellular toxicity", "setting": "Vero cells; 2 concentrations, not irradiated (Table 18 experiment)", "result": "no evidence of cellular toxicity"}, {"measurement": "cellular toxicity", "setting": "Vero cells; 8 concentrations, not irradiated (Table 15 experiment)", "result": "no evidence of cellular toxicity"}, {"measurement": "cellular toxicity", "setting": "Vero cells; 8 concentrations, not irradiated (Table 16 experiment)", "result": "no evidence of cellular toxicity"}, {"measurement": "fluorescence, % of initial (dark) value", "setting": "[3]; 200 J/cm^2, 420 nm", "result": 32.2, "unit": "%"}, {"measurement": "fluorescence recovered, % of initial value", "setting": "[3]; 70 hours at 22° C.", "result": 62.7, "unit": "%"}, {"measurement": "fluorescence recovered, % of initial value", "setting": "[3]; 166 hours at 22° C.", "result": 64.0, "unit": "%"}, {"measurement": "initially activated species permanently losing fluorescence", "setting": "[3]; Cremophor EL", "result": "Approximately 50%"}, {"measurement": "initially activated species recovering fluorescence", "setting": "[3]; Cremophor EL", "result": "Approximately 50%"}]}
